Molecules are shown by their SMILES. Values after ≈ are worked out from the molar mass of the structure shown. Active and inactive are the calls of the source. No rule for the calls is given here.

Results on 17 compounds are retold here after PubChem BioAssay AID588778 (Southern Research Institute, 2011).

The test system of the experiment is Vibrio cholerae motility, OD read-out. As to the kind of experiment: Vibrio cholerae motility inhibitors, OD read-out (AID 588778).
For the compound `FC(F)(F)c1ccccc1-n1c(-c2cccnc2)n[nH]c1=S`, the IC50 was 6.15 mg/L (inactive) (≈ 19.1 µM). Turning to `O=C1CC(Sc2ccccc2C(=O)O)C(=O)N1` (configuration not stated), the IC50 is 8.99 mg/L (inactive) (≈ 35.8 µM). In the case of `O=[N+]([O-])c1nn(Cc2c(F)cccc2Cl)cc1Cl`, the IC50 is 1.4 mg/L (≈ 4.83 µM).

For `O=C(Oc1ccc(Cl)c2cccnc12)c1cccs1`, the IC50 is 12.8 mg/L (inactive) (≈ 44.2 µM). Consider `COC(=O)c1sc2cc(NC(=S)NC(C)c3ccc4c(c3)OCO4)ccc2c1Cl` (configuration not stated), for which the IC50 is 46.8 mg/L (inactive) (≈ 104 µM).

As for `CC(=O)NC(=S)NNC(=O)c1ccc(-c2ccccc2)cc1`, the IC50 is 1.96 mg/L (inactive) (≈ 6.25 µM). In the case of `Nc1nc(-c2ccccc2)cc(N2CCCCC2)n1`, the IC50 is 14.3 mg/L (inactive) (≈ 56.2 µM).

As to `O=C(N/C(=C/c1cccs1)c1nc2ccccc2[nH]1)c1cccs1`, the IC50 is 16.8 mg/L (inactive) (≈ 47.8 µM). In the case of `CC[n+]1c(/C=C/c2ccc(-c3ccc([N+](=O)[O-])cc3)o2)ccc2ccccc21`, the IC50 was 15.3 mg/L (inactive). Consider `CC(NC(=O)c1ccc([N+](=O)[O-])o1)C12CC3CC(CC(C3)C1)C2` (configuration not stated), for which the IC50 was 3.3 mg/L (inactive) (≈ 10.4 µM). With `NC(=O)NNc1c2ccccc2nc2ccccc12`, the IC50 is 13 mg/L (inactive) (≈ 51.5 µM). Consider `C=CCNC(=S)Nc1ccc(Cl)c(Cl)c1`, for which the IC50 was 26.4 mg/L (inactive) (≈ 101 µM).

With `Nc1nc(NC(=O)c2ccco2)nn1-c1ccccc1`, the IC50 is 11.3 mg/L (≈ 42 µM). On to `COC(=O)NC12CC3CC(CC(C3)C1)C2`, for which the IC50 was 16.4 mg/L (inactive) (≈ 78.4 µM). Then `Cc1ccc(C)c(Nc2nc(NCCO)c3ccccc3n2)c1`, with 6.87 mg/L (≈ 22.3 µM); and `Cc1ccc(OCCn2ccnc2)c(Cl)c1`, with 25.9 mg/L (inactive) (≈ 109 µM).

For the compound `O=[N+]([O-])c1nn(Cc2ccc(F)cc2)cc1Br`, the IC50 is 4.1 mg/L (≈ 13.7 µM).
